Data reported in patent US7521418B2, “Use of a polyene macrolide antifungal agent in combination with a glycopeptide antibacterial agent” (Theravance, Inc., priority 2003, dated 2009).

Experiments:
Assay in all cases: Checkerboard MIC assay, FICI
Conditions in all cases: combination with Compound 1
A. fumigatus ATCC 14110 = type: cell-based, Aspergillus fumigatus
Text: (§1) The following assay was used to determine the minimum inhibitory concentration (MIC) and fractional inhibitory concentration index (FICI) for combinations of an antifungal agent and a glycopeptide antibacterial agent. This assay and methods for calculating FICI are well known in the art. See, for example, Eliopoulos, E. G. and R. Moellering, Jr. “Antimicrobial Combinations” in Antibiotics in Laboratory Medicine, edited by V. Lorian, 4th Ed., Williams & Wilkins, Baltimore, MD, pp. 330-396 (1996); […] et al., Antimicrobial Agents and Chemotherapy 47(4):1416-1418 (2003); or […] et al., Antimicrobial Agents and Chemotherapy 46(10):3323-3326 (2002). […] The MIC of the glycopeptide antibacterial agent determined from this experiment was used in FIC calculations. […]

[1] = system: F. moniliforme ATCC 38159; type: cell-based, Fusarium moniliforme
Text: as §1

G. candidum ATCC 62231 = type: cell-based, Geotricium candidum
Text: as §1

Row | SMILES | FICI (A. fumigatus ATCC 14110) | FICI [1] | FICI (G. candidum ATCC 62231)
1 | C[C@@H]1[C@H](O)[C@@H](C)/C=C/C=C/C=C/C=C/C=C/C=C/C=C/[C@H](O[C@@H]2O[C@H](C)[C@@H](O)[C@H](N)[C@@H]2O)C[C@@H]2O[C@](O)(C[C@@H](O)C[C@@H](O)[C@H](O)CC[C@@H](O)C[C@@H](O)CC(=O)O[C@H]1C)C[C@H](O)[C@H]2C(=O)O [Amphotericin B] | 0.31 | 0.53 | 0.63
2 | C[C@@H]1[C@H](O)[C@@H](C)/C=C/C=C/CC/C=C/C=C/C=C/C=C/C(O[C@H]2O[C@H](C)[C@@H](O)[C@H](N)[C@@H]2O)CC2O[C@](O)(CC(O)C(O)CCC(O)CC(O)CC(O)CC(=O)O[C@H]1C)CC(O)C2C(=O)O (stereo partly drawn) [Nystatin] | 1.25 | 0.51 | 0.31
